Reference: article PMC10600239, “Selective MCL-1 inhibitor ABBV-467 is efficacious in tumor models but is associated with cardiac troponin increases in patients” (Communications Medicine, 2023)
Where two headings read alike, the source gives them in different places.

Assays:
Experiment in all cases: Off-target profiling (Supplementary Data 1)
[1] = biological target: off-target receptors, ion channels, and transporters (Homo sapiens, UniProt O14965); settings: TR-FRET Kinome; Invitrogen A-1169612.6 .006(Subs Conc)
[2] = biological target: off-target receptors, ion channels, and transporters (Homo sapiens, UniProt P04150); settings: CEREP
[3] = biological target: off-target receptors, ion channels, and transporters (Homo sapiens, UniProt Q08345); settings: TR-FRET Kinome; Invitrogen A-1196581.2 .003(Subs Conc)
[4] = biological target: off-target receptors, ion channels, and transporters (Homo sapiens, UniProt P35367)
Sequence of off-target receptors, ion channels, and transporters (Homo sapiens, UniProt P35367) (P35367 whole entry): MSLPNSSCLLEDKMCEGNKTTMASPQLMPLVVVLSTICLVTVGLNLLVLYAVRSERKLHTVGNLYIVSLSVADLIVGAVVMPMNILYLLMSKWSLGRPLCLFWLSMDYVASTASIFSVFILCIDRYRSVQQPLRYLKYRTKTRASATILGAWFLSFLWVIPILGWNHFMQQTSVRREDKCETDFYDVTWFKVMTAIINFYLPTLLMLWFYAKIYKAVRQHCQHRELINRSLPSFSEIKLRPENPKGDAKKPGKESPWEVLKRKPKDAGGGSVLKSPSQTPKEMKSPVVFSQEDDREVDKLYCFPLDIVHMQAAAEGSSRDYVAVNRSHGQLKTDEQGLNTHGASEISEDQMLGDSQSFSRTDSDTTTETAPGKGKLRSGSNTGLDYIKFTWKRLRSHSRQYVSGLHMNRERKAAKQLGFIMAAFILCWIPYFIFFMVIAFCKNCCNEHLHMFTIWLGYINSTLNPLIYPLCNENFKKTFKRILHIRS

[5] = biological target: off-target receptors, ion channels, and transporters (Homo sapiens, UniProt P42680); settings: TR-FRET Kinome; SignalChem A-1214384.2 .02(Subs Conc)
[6] = biological target: off-target receptors, ion channels, and transporters (Homo sapiens, UniProt P49760); settings: TR-FRET Kinome; Invitrogen A-1180691.2 .05(Subs Conc)
[7] = biological target: off-target receptors, ion channels, and transporters (Homo sapiens, UniProt P28223)
Sequence of off-target receptors, ion channels, and transporters (Homo sapiens, UniProt P28223) (P28223 whole entry): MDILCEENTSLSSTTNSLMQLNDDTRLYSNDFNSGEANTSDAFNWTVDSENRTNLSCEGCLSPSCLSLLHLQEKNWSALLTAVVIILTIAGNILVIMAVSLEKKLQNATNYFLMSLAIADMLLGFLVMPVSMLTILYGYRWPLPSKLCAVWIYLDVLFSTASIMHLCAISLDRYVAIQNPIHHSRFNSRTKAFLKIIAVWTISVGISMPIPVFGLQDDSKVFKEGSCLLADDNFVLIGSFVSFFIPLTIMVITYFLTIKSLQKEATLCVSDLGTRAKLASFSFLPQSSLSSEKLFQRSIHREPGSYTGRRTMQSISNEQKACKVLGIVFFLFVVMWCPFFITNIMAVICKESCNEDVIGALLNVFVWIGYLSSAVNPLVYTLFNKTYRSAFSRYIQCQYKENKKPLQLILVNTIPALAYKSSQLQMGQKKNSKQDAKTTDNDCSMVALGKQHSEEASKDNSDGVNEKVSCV

[8] = biological target: off-target receptors, ion channels, and transporters (Homo sapiens, UniProt P21554)
Sequence of off-target receptors, ion channels, and transporters (Homo sapiens, UniProt P21554) (P21554 whole entry): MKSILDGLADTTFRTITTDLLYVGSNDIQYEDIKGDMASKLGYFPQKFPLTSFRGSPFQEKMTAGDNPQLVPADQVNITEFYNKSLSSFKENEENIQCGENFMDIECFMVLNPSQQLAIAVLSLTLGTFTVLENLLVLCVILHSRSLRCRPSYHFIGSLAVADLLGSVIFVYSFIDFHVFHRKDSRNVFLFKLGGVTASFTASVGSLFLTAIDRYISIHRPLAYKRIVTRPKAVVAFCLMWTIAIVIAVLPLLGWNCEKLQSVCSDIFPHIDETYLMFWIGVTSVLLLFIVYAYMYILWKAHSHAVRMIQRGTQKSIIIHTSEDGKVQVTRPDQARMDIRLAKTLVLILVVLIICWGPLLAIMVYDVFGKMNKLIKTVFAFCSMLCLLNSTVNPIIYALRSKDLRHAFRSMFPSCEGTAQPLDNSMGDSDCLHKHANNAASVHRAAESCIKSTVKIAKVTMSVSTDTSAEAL

[9] = biological target: off-target receptors, ion channels, and transporters (Homo sapiens, UniProt P49336); settings: TR-FRET Kinome; Invitrogen A-1167389.7 .025(Subs Conc)
[10] = biological target: off-target receptors, ion channels, and transporters (Homo sapiens, UniProt P46734); settings: TR-FRET Kinome; Invitrogen A-1224615.7 .2(Subs Conc)
[11] = biological target: off-target receptors, ion channels, and transporters (Homo sapiens, UniProt P42681); settings: TR-FRET Kinome; SignalChem A-1224127.6 .005(Subs Conc)
[12] = biological target: off-target receptors, ion channels, and transporters (Homo sapiens, UniProt Q13043); settings: TR-FRET Kinome; Invitrogen A-1167389.7 .025(Subs Conc)
[13] = biological target: off-target receptors, ion channels, and transporters (Homo sapiens, UniProt Q06418); settings: TR-FRET Kinome; Invitrogen A-1169612.6 .05(Subs Conc)
[14] = biological target: off-target receptors, ion channels, and transporters (Homo sapiens, UniProt O75716); settings: TR-FRET Kinome; Invitrogen A-1213250.2 .0125(Subs Conc)
Sequence of off-target receptors, ion channels, and transporters (Homo sapiens, UniProt O75716) (O75716 whole entry): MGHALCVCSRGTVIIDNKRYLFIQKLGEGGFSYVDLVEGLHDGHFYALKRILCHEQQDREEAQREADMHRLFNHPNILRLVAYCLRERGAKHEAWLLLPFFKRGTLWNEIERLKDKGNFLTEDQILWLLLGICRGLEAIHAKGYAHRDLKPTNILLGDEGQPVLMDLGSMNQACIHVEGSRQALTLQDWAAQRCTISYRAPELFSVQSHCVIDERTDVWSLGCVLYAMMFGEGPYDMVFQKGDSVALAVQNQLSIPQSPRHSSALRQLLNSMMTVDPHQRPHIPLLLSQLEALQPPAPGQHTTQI

[15] = biological target: off-target receptors, ion channels, and transporters (Homo sapiens, UniProt P08172)
Sequence of off-target receptors, ion channels, and transporters (Homo sapiens, UniProt P08172) (P08172 whole entry): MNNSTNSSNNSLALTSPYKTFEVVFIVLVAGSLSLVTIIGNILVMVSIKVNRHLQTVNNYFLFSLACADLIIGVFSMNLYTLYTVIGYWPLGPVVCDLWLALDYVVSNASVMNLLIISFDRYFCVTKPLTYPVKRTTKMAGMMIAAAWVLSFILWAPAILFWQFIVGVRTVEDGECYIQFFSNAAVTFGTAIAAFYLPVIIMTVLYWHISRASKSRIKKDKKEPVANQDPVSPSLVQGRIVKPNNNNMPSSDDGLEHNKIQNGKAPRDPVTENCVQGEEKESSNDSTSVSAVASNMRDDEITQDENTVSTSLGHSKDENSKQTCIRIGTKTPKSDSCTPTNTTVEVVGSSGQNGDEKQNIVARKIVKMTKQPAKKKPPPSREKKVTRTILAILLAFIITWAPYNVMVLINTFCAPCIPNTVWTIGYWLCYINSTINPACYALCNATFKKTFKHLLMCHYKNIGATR

[16] = biological target: off-target receptors, ion channels, and transporters (Homo sapiens, UniProt P51955); settings: TR-FRET Kinome; Invitrogen A-1196581.2 .025(Subs Conc)
[17] = biological target: off-target receptors, ion channels, and transporters (Homo sapiens, UniProt Q05397); settings: TR-FRET Kinome; Invitrogen A-1167389.7 .05(Subs Conc)
[18] = biological target: off-target receptors, ion channels, and transporters (Homo sapiens, UniProt P30542)
Sequence of off-target receptors, ion channels, and transporters (Homo sapiens, UniProt P30542) (P30542 whole entry): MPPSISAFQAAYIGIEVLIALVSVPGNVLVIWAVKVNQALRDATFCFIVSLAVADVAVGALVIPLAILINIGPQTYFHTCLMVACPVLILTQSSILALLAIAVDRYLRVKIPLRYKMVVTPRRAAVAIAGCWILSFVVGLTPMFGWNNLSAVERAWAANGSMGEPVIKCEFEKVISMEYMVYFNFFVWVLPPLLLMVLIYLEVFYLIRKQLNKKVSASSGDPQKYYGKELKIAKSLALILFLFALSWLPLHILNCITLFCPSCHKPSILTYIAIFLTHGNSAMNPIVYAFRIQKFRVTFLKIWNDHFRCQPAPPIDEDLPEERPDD

[19] = biological target: off-target receptors, ion channels, and transporters (Homo sapiens, UniProt Q9H4B4); settings: TR-FRET Kinome; Invitrogen A-1224615.7 .2(Subs Conc)
[20] = biological target: off-target receptors, ion channels, and transporters (Homo sapiens, UniProt Q9UM73); settings: TR-FRET Kinome; Millipore A-1167389.7 .05(Subs Conc)
Sequence of off-target receptors, ion channels, and transporters (Homo sapiens, UniProt Q9UM73) (Q9UM73 19-1620): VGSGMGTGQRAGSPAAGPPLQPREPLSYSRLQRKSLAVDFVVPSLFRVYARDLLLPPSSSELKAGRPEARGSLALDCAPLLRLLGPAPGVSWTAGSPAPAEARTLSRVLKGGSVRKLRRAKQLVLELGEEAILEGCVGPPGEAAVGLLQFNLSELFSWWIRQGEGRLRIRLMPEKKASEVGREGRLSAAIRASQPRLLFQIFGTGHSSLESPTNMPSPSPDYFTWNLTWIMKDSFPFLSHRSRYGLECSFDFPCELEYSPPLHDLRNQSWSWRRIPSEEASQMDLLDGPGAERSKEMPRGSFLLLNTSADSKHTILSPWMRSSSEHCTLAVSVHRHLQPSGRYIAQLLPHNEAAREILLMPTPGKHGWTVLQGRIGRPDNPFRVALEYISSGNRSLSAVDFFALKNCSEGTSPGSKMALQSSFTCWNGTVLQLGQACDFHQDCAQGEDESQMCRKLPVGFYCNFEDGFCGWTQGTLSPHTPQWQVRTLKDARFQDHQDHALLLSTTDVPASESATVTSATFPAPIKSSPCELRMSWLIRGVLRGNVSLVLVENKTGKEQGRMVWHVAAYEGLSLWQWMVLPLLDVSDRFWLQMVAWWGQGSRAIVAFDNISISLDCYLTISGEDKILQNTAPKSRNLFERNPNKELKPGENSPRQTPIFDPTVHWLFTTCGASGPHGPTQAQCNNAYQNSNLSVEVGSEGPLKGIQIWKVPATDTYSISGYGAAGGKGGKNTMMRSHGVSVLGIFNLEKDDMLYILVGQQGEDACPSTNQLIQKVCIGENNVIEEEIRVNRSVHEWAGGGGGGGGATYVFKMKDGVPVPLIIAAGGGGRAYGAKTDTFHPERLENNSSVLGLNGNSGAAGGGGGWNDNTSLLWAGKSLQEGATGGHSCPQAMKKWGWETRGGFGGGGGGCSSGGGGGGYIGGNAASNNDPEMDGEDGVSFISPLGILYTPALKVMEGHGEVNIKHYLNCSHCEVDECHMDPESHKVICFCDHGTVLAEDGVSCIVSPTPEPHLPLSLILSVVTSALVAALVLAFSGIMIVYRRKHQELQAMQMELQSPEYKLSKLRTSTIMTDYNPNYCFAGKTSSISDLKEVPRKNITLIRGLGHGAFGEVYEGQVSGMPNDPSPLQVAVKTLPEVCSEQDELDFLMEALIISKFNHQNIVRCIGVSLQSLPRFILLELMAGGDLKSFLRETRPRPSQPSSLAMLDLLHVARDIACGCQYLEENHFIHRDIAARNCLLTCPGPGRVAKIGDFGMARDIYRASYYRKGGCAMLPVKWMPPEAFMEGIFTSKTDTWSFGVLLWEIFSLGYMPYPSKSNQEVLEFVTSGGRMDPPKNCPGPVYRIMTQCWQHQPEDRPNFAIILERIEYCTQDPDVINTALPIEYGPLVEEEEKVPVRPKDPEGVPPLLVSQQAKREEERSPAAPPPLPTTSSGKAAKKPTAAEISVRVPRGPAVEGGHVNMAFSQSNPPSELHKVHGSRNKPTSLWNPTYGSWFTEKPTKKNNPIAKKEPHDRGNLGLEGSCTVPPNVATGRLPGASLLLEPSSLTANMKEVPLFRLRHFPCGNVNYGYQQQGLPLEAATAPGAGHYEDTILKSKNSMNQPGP

[21] = biological target: off-target receptors, ion channels, and transporters (Homo sapiens, UniProt O43318); settings: TR-FRET Kinome, SignalChem A-1167389.7 .05(Subs Conc)
Sequence of off-target receptors, ion channels, and transporters (Homo sapiens, UniProt O43318) (O43318 1-303): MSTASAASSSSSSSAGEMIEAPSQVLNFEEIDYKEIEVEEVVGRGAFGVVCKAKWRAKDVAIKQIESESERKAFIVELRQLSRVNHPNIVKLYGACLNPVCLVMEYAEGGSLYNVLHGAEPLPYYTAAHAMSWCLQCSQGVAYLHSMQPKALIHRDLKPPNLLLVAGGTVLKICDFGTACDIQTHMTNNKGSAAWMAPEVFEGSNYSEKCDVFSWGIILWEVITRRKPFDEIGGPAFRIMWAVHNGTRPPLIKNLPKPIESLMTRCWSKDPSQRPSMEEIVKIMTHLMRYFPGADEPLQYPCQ
Sequence of off-target receptors, ion channels, and transporters (Homo sapiens, UniProt O43318) (Q15750 437-504 partner): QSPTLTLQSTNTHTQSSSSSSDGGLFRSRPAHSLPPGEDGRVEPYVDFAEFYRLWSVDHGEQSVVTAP

[22] = biological target: off-target receptors, ion channels, and transporters (Homo sapiens, UniProt P08588)
Sequence of off-target receptors, ion channels, and transporters (Homo sapiens, UniProt P08588) (P08588 whole entry): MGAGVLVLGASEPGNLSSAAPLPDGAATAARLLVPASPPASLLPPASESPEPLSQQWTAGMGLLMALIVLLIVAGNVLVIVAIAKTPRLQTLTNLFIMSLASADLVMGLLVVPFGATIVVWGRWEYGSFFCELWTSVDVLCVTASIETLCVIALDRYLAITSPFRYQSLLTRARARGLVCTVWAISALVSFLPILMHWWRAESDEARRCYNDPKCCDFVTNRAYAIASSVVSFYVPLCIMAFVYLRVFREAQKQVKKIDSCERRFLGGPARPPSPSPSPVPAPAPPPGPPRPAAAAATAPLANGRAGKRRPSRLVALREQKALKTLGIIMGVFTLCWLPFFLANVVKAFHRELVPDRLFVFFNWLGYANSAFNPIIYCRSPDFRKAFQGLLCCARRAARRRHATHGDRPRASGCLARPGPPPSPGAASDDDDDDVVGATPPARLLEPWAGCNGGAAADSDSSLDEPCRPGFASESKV

[23] = biological target: off-target receptors, ion channels, and transporters (Homo sapiens, UniProt Q9UQM7); settings: TR-FRET Kinome; Invitrogen A-1169612.6 .003(Subs Conc)
[24] = biological target: off-target receptors, ion channels, and transporters; settings: for EC50: Bioprofiling 6pt Ag
[25] = biological target: off-target receptors, ion channels, and transporters (Homo sapiens, UniProt O94806); settings: TR-FRET Kinome; Invitrogen A-1169612.6 .2(Subs Conc)

Cc1c(Cl)c2c(Cl)c(C)c1-c1c(-c3ccc(F)cc3)sc3ncnc(c13)O[C@@H](C(=O)O)Cc1cc(ccc1OCc1ccnc(-c3ccc(OC[C@H]4COCCO4)cc3)n1)OC[C@@H](CN1CCN(C)CC1)O2 [ABBV-467]
Aurora2 - IC50 [1]: > 10 µM
Glucocorticoid Human Agonist Ligand (Binding Assay) - IC50 [2]: 1 µM
DDR1 - IC50 [3]: > 10 µM
H1 CHO Human - EC50 ([4]; Bioprofiling 6pt Ag): > 10 µM
H1 CHO Human - IC50 ([4]; Bioprofiling 6pt Antag, Histamine): > 10 µM
TEC - IC50 [5]: > 10 µM
CLK2 - IC50 [6]: > 10 µM
5-HT2A CHO Human - EC50 ([7]; Bioprofiling 6pt Ag): > 10 µM
5-HT2A CHO Human - IC50 ([7]; Bioprofiling 6pt Antag, Serotonin (5-HT)): > 10 µM
CB1 CHO Human - EC50 ([8]; Bioprofiling 6pt Ag): > 10 µM
CB1 CHO Human - IC50 ([8]; Bioprofiling 6pt Antag, WIN 55,212-2): > 10 µM
CDK8/Cyclin C - IC50 [9]: > 10 µM
MAP2K3 - IC50 [10]: > 10 µM
TXK - IC50 [11]: > 10 µM
MST1 - IC50 [12]: > 10 µM
TYRO3 - IC50 [13]: > 10 µM
STK16 - IC50 [14]: > 10 µM
M2 CHO Human - EC50 ([15]; Bioprofiling 6pt Ag): > 10 µM
M2 CHO Human - IC50 ([15]; Bioprofiling 6pt Antag, Carbachol): > 10 µM
Nek2 - IC50 [16]: > 10 µM
FAK - IC50 [17]: > 10 µM
A1 CHO Human - EC50 ([18]; Bioprofiling 6pt Ag): > 10 µM
A1 CHO Human - IC50 ([18]; Bioprofiling 6pt Antag, N6-Cyclopentyladenosine (CPA)): > 10 µM
Plk3 - IC50 [19]: > 10 µM
ALK - IC50 [20]: > 10 µM
IC50 ([21]; read-out: TAK1-TAB1 - IC50): > 10 µM
Ki ([21]; read-out: TAK1-TAB1 - Ki): > 3.91 µM
Beta1 CHO Human - EC50 ([22]; Bioprofiling 6pt Ag): > 10 µM
Beta1 CHO Human - IC50 ([22]; Bioprofiling 6pt Antag, Norepinephrine): > 10 µM
CAMK2A - IC50 [23]: > 10 µM
EC50 ([24]; read-out: CHO Hamster - EC50): > 10 µM
EC50 ([24]; read-out: Cav1.2 (L-type) ND7/23 Mouse/Rat - EC50): > 10 µM
IC50 ([24]; read-out: Cav1.2 (L-type) ND7/23 Mouse/Rat - IC50, Bioprofiling 6pt Antag, KCl): > 10 µM
Prkcn - IC50 [25]: > 10 µM
